Literature values in patent US10646430B2, “Topical compositions for stimulating adipogenesis and lipogenesis to reduce the signs of skin aging” (Kimberly-Clark Worldwide, Inc., priority 2014, dated 2020).

System: 3T3-L1 cells
Details: Kim et al., Nutr. Res. 32(6): 439-447

Fucoidan
adipogenesis (literature): inhibit adipogenesis
